Values joined by “and” are separate entries in the source; they are usually repeats but may differ in a detail not shown here. Identical values can stand only once.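 Cells were grown in 96-well plates and exposed to each compound for 48 hours at five concentrations; endpoints were interpolated linearly between bracketing concentrations, or set to the highest concentration if not reached. The concentration for 50% growth inhibition is given as GI50. TGI marks complete inhibition of growth.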
What was measured:
Assay in all cases: NCI-60 cell line screen, 48 h
SN12C renal = tested on: SN12C renal
CCRF-CEM leukemia = tested on: CCRF-CEM leukemia
NCI-H522 lung = tested on: NCI-H522 lung
K-562 leukemia = tested on: K-562 leukemia
SNB-19 CNS = tested on: SNB-19 CNS
SK-MEL-28 melanoma = tested on: SK-MEL-28 melanoma
DU-145 prostate = tested on: DU-145 prostate
HS 578T breast = tested on: HS 578T breast
ACHN renal = tested on: ACHN renal
SNB-75 CNS = tested on: SNB-75 CNS

Q: `COc1ccccc1-c1cc(/C=C2\C(=O)Nc3ncc(Br)cc32)cc(Br)c1O` was tested. Which GI50 (SN12C renal) did it give?
A: Its GI50 is 12.1 µM.

Q: What about the TGI (SN12C renal) of the same compound?
A: The TGI was > 25 µM.

Q: And the GI50 (CCRF-CEM leukemia)?
A: Its GI50 is 9.76 µM.

Q: And the TGI (CCRF-CEM leukemia)?
A: The TGI was > 25 µM.

Q: And the GI50 (NCI-H522 lung)?
A: The GI50 was 6.1 µM.

Q: And the TGI (NCI-H522 lung)?
A: Its TGI is > 23.3 µM.

Q: And the GI50 (K-562 leukemia)?
A: The GI50 was 9.76 µM.

Q: And the TGI (K-562 leukemia)?
A: Its TGI is > 25 µM.

Q: And the GI50 (SNB-19 CNS)?
A: Its GI50 is 12.5 µM.

Q: And the TGI (SNB-19 CNS)?
A: Its TGI is > 25 µM.

Q: What about the GI50 (SK-MEL-28 melanoma) of the same compound?
A: Its GI50 is 14.8 µM.

Q: What about the TGI (SK-MEL-28 melanoma) of the same compound?
A: Its TGI is > 25 µM.

Q: What about the GI50 (DU-145 prostate) of the same compound?
A: Its GI50 is 17.6 µM.

Q: What about the TGI (DU-145 prostate) of the same compound?
A: The TGI was > 25 µM.

Q: And the GI50 (HS 578T breast)?
A: Its GI50 is 7.67 µM.

Q: And the TGI (HS 578T breast)?
A: Its TGI is > 25 µM.

Q: And the GI50 (ACHN renal)?
A: The GI50 was 11.7 µM.

Q: And the TGI (ACHN renal)?
A: The TGI was > 25 µM.

Q: And the GI50 (SNB-75 CNS)?
A: The GI50 was 6.03 µM.

Q: What about the TGI (SNB-75 CNS) of the same compound?
A: The TGI was > 25 µM.

Q: With `C[C@@H](N)C1CCC(C(=O)Nc2ccncc2)CC1` (some centres undefined) as the compound, how does the GI50 (SN12C renal) read?
A: Its GI50 is > 100 µM.

Q: What about the TGI (SN12C renal) of the same compound?
A: Its TGI is > 100 µM.

Q: And the GI50 (CCRF-CEM leukemia)?
A: The GI50 was 51.2 µM.

Q: And the TGI (CCRF-CEM leukemia)?
A: The TGI was > 100 µM.

Q: What about the GI50 (NCI-H522 lung) of the same compound?
A: The GI50 was > 100 µM.

Q: And the TGI (NCI-H522 lung)?
A: The TGI was > 100 µM.

Q: What about the GI50 (K-562 leukemia) of the same compound?
A: Its GI50 is > 100 µM.

Q: And the TGI (K-562 leukemia)?
A: Its TGI is > 100 µM.

Q: And the GI50 (SNB-19 CNS)?
A: The GI50 was > 100 µM.

Q: What about the TGI (SNB-19 CNS) of the same compound?
A: Its TGI is > 100 µM.

Q: And the GI50 (SK-MEL-28 melanoma)?
A: The GI50 was > 100 µM.

Q: What about the TGI (SK-MEL-28 melanoma) of the same compound?
A: Its TGI is > 100 µM.

Q: And the GI50 (DU-145 prostate)?
A: Its GI50 is > 100 µM.

Q: And the TGI (DU-145 prostate)?
A: The TGI was > 100 µM.

Q: And the GI50 (HS 578T breast)?
A: Its GI50 is 26.4 µM.

Q: What about the TGI (HS 578T breast) of the same compound?
A: Its TGI is > 100 µM.

Q: What about the GI50 (ACHN renal) of the same compound?
A: Its GI50 is > 100 µM.

Q: And the TGI (ACHN renal)?
A: The TGI was > 100 µM.

Q: And the GI50 (SNB-75 CNS)?
A: The GI50 was 5.58 µM.

Q: What about the TGI (SNB-75 CNS) of the same compound?
A: Its TGI is > 100 µM.

Q: Which results are given for `COC(=O)[C@H]1[C@@H](O)[C@@]2(O)c3c(OC)cc(O[C@@H]4O[C@@H]([C@H](O)CO)CO[C@H]4OC)cc3O[C@@]2(c2ccc(OC)cc2)[C@@H]1c1ccccc1`?
A: GI50 (SN12C renal): 0.00359 µM; TGI (SN12C renal): 0.0501 µM; GI50 (CCRF-CEM leukemia): 0.00545 µM; TGI (CCRF-CEM leukemia): 0.125 µM; GI50 (NCI-H522 lung): 0.00344 µM; TGI (NCI-H522 lung): 0.0241 µM; GI50 (K-562 leukemia): 0.00386 µM; TGI (K-562 leukemia): > 1 µM; GI50 (SNB-19 CNS): 0.00277 µM; TGI (SNB-19 CNS): 0.0384 µM; GI50 (SK-MEL-28 melanoma): 0.00321 µM; TGI (SK-MEL-28 melanoma): 0.0119 µM; GI50 (DU-145 prostate): 0.00416 µM; TGI (DU-145 prostate): 0.046 µM; GI50 (HS 578T breast): 0.00596 µM; TGI (HS 578T breast): 0.0806 µM; GI50 (ACHN renal): 0.0597 µM; TGI (ACHN renal): 0.783 µM; GI50 (SNB-75 CNS): 0.004 µM; TGI (SNB-75 CNS): 0.0321 µM

Q: What does the source list for `COc1cc2c(F)nccc2cc1C(=O)N[C@@H](c1ccc(F)c(Cl)c1)[C@@H]1C[C@@H](O)CN1`?
A: GI50 (SN12C renal): 8.08 µM; TGI (SN12C renal): 22.2 µM; GI50 (CCRF-CEM leukemia): 0.299 µM; TGI (CCRF-CEM leukemia): > 42 µM; GI50 (NCI-H522 lung): 12 µM; TGI (NCI-H522 lung): 26.7 µM; GI50 (K-562 leukemia): 3.87 µM; TGI (K-562 leukemia): > 78.4 µM; GI50 (SNB-19 CNS): 0.847 µM; TGI (SNB-19 CNS): 18.5 µM; GI50 (SK-MEL-28 melanoma): 4.48 µM; TGI (SK-MEL-28 melanoma): 20.2 µM; GI50 (DU-145 prostate): 6.84 µM; TGI (DU-145 prostate): 24 µM; GI50 (HS 578T breast): 0.0715 µM; TGI (HS 578T breast): 2.41 µM; GI50 (ACHN renal): 9.59 µM; TGI (ACHN renal): 22.3 µM; GI50 (SNB-75 CNS): 0.074 µM; TGI (SNB-75 CNS): 1.51 µM

Q: With `O=C(c1ccc(OCCN2CCCCC2)cc1)c1c(-c2ccc(O)cc2)sc2cc(O)ccc12` as the compound, how does the GI50 (SN12C renal) read?
A: Its GI50 is 13.5 µM and 14.5 µM.

Q: What about the TGI (SN12C renal) of the same compound?
A: Its TGI is 29.7 µM and 29.8 µM.

Q: And the GI50 (CCRF-CEM leukemia)?
A: The GI50 was 5.55 µM and 1.85 µM.

Q: And the TGI (CCRF-CEM leukemia)?
A: Its TGI is 43.9 µM and > 29.8 µM.

Q: And the GI50 (NCI-H522 lung)?
A: The GI50 was 11 µM and 16.5 µM.

Q: And the TGI (NCI-H522 lung)?
A: Its TGI is 28.6 µM and 37.3 µM.

Q: And the GI50 (K-562 leukemia)?
A: Its GI50 is 2.5 µM and 7.63 µM.

Q: And the GI50 (SNB-19 CNS)?
A: Its GI50 is 13.7 µM and 15 µM.

Q: And the TGI (SNB-19 CNS)?
A: The TGI was 30.5 µM and 34.2 µM.

Q: What about the GI50 (SK-MEL-28 melanoma) of the same compound?
A: The GI50 was 12.3 µM and 6.65 µM.

Q: What about the TGI (SK-MEL-28 melanoma) of the same compound?
A: Its TGI is 25.1 µM and 23.6 µM.

Q: And the GI50 (DU-145 prostate)?
A: The GI50 was 11.7 µM and 14.9 µM.

Q: What about the TGI (DU-145 prostate) of the same compound?
A: Its TGI is 23.9 µM and 30.2 µM.

Q: What about the GI50 (HS 578T breast) of the same compound?
A: Its GI50 is 2.99 µM and 9.71 µM.

Q: What about the TGI (HS 578T breast) of the same compound?
A: Its TGI is 22.8 µM and 47.8 µM.

Q: And the GI50 (ACHN renal)?
A: Its GI50 is 13.5 µM and 14.7 µM.

Q: What about the TGI (ACHN renal) of the same compound?
A: Its TGI is 27.2 µM and 28.2 µM.

Q: And the GI50 (SNB-75 CNS)?
A: Its GI50 is 7.55 µM and 8.56 µM.

Q: What about the TGI (SNB-75 CNS) of the same compound?
A: Its TGI is 20.6 µM and 23.6 µM.

Q: How did the GI50 (SN12C renal) turn out when `COC(=O)C(Cc1cnc[nH]1)NC(=O)CNC(=O)CCCn1c(=O)c2c3ccccc3n(C)c2n2nnc(-c3ccccc3)c12` (centres undefined) was run?
A: Its GI50 is > 100 µM.

Q: And the TGI (SN12C renal)?
A: Its TGI is > 100 µM.

Q: What about the GI50 (CCRF-CEM leukemia) of the same compound?
A: The GI50 was > 100 µM.

Q: What about the TGI (CCRF-CEM leukemia) of the same compound?
A: The TGI was > 100 µM.

Q: What about the GI50 (NCI-H522 lung) of the same compound?
A: Its GI50 is > 100 µM.

Q: What about the TGI (NCI-H522 lung) of the same compound?
A: Its TGI is > 100 µM.

Q: And the GI50 (K-562 leukemia)?
A: The GI50 was > 100 µM.

Q: And the TGI (K-562 leukemia)?
A: The TGI was > 100 µM.

Q: And the GI50 (SNB-19 CNS)?
A: The GI50 was > 100 µM.

Q: And the TGI (SNB-19 CNS)?
A: Its TGI is > 100 µM.

Q: What about the GI50 (SK-MEL-28 melanoma) of the same compound?
A: The GI50 was > 100 µM.

Q: What about the TGI (SK-MEL-28 melanoma) of the same compound?
A: The TGI was > 100 µM.

Q: What about the GI50 (DU-145 prostate) of the same compound?
A: Its GI50 is > 100 µM.

Q: What about the TGI (DU-145 prostate) of the same compound?
A: The TGI was > 100 µM.

Q: What about the GI50 (HS 578T breast) of the same compound?
A: Its GI50 is > 100 µM.

Q: What about the TGI (HS 578T breast) of the same compound?
A: The TGI was > 100 µM.

Q: What about the GI50 (ACHN renal) of the same compound?
A: The GI50 was > 100 µM.

Q: And the TGI (ACHN renal)?
A: The TGI was > 100 µM.

Q: What about the GI50 (SNB-75 CNS) of the same compound?
A: The GI50 was > 100 µM.

Q: What about the TGI (SNB-75 CNS) of the same compound?
A: Its TGI is > 100 µM.
